PMC12684325, “SiR‐XActin: A Fluorescent Probe for Imaging Actin Dynamics in Live Cells” (Angewandte Chemie (International Ed. in English), 2025)

Test system: T1, F-actin
T1 construct: gene ACTB; F-actin filaments
Assay: microscopy-based apparent affinity measurement for F-actin (fluorescent probe; fixed-cell staining)

| Substance | Kd [nM] |
| --- | --- |
| SiR-XActin [compound 8] | 557 |
| SiR-actin [compound 2] | 6 |
